row,SMILES,melting point
1,COc1ccc(C(=O)NC(=O)Nc2ccc3c(c2)NC(=O)/C3=C\c2ccncc2)cc1,270 to 275 °C
2,CCOP(=O)(OCC)C1CNc2ccc(C(F)(F)F)cc2C1 (stereo unspecified),112 °C
3,CN1CCCC1COc1ccc(-c2cccc(N)n2)c2ccccc12 (stereo unspecified),80 to 95 °C
4,Cc1ccc(-c2c(NS(=O)(=O)c3ccc(C(C)(C)C)cc3)ncnc2OCCOc2ccc(N)cc2)cc1,190 to 191 °C
5,COC(=O)c1cc(C)cc(CC#N)c1,56.2 to 57.8 °C
6,O=C(O)C1=Cc2cc(C(O)C(F)(F)F)ccc2OC1C(F)(F)F (stereo unspecified),114 to 120 °C
7,O=C1c2cccc(-c3ccccc3)c2C2NCCN12 (stereo unspecified),155 to 157 °C
8,CCCc1nc(C(C)(C)O)c(-c2nnn[nH]2)n1Cc1ccc(-c2ccccc2C(=O)C(=O)O)cc1,169 to 170 °C
9,COc1ccc(C2=NCC(NN)=Nc3ccc(Cl)cc32)cc1,213 to 215 °C
10,O=C(CBr)Cc1c(F)cccc1Cl,47 °C
11,CC1C(c2ccccc2)OC(=O)N1C(=O)CC1c2ccccc2CCc2ccccc21 (stereo unspecified),130 to 131 °C
12,OCC1OC(n2cnc3c(NCC4(c5cccs5)CCC4)ncnc32)C(O)C1O (stereo unspecified),84 to 92 °C
13,CCCOc1ncc(S(C)(=O)=O)cc1-c1nc2c(CC)nn(C[C@@H]3CCCN3C(=O)OC(C)(C)C)c2c(=O)[nH]1,98 to 104 °C
14,CCCC1=C(C(=O)OCC)C(c2cccc([N+](=O)[O-])c2)C(C(=O)OCC)=C(CCC)N1COCC,109 to 110 °C
15,COC(=O)c1ccc(OC)c([N+](=O)[O-])c1O,185 to 187 °C
16,N#Cc1cc(I)c(N)c(C(F)(F)F)c1,86 to 88 °C
17,CCOC(=O)c1nc(/C=C/c2ccc([N+](=O)[O-])o2)no1,138 to 139 °C
18,CCC(=O)Cc1nc2ccccc2c(=O)o1,70 to 72 °C
19,CC(C)Oc1nccc2c1C(c1ccccc1C(F)(F)F)c1c(ccnc1OC(C)C)N2,196 to 197 °C
20,Cc1cc(N2CCCC2)cc2c1C(=O)OC2=O,222 to 225 °C
21,CCOC(=O)c1ncn2c1CN=C(c1ccccc1F)c1cc(Br)ccc1-2,200 to 202 °C
22,ClCCOc1ccc(/C=C/c2nc3ccccc3o2)cc1,88 to 90 °C
23,O=C(c1ccc(Br)cc1)N1CC(=O)N2CCc3ccccc3C2C1 (stereo unspecified),204 to 206 °C
24,O=C1NC(=O)c2c1cc1ccc3c(c1c2-c1ccc(OCc2ccccc2)cc1)OCO3,265 to 267 °C
25,N[C@@H](CC1CCCCC1)[C@@H](O)[C@@H]1CCCS1,58 to 59 °C
26,Fc1ccc2nc(Cl)c(Cl)nc2c1,148 to 152 °C

row,SMILES,melting point
1,COC(=O)c1cc(F)ccc1Nc1ccnc2cc(C(F)(F)F)ccc12,174 °C
2,N#CC(=Cc1ccccc1F)C(O)C#N (stereo unspecified),122 °C
3,COc1ccc(-c2nc(Cn3ccnn3)cs2)cc1,89 to 94 °C
4,CNC(=O)c1ccccc1Nc1nc(Nc2ccc3c(c2)COCCN3C)ncc1Cl,216 to 217 °C
5,CC(Oc1ccc(N(C)c2nnc3cc(Cl)ccc3n2)cc1)C(=O)O (stereo unspecified),125 °C
6,Cc1ccc(O)c(Cn2c(NCCCN3CCOCC3)nc3ccc(Cc4c(C)cc(NCCO)cc4C)cc32)n1,162 °C
7,C#CCNc1ccc([N+](=O)[O-])cc1,150 to 153 °C
8,O=C(NO)[C@H](CNS(=O)(=O)c1ccc(OCc2ccc(F)cc2)cc1)N1CCCCC1,140 °C
9,CC(C)n1nc(-c2c(NCC(N)=O)nc(N)nc2-c2ccccc2)ccc1=O,235 to 238 °C
10,CC(=O)OC1CCC2(C)C(=CCC3C2CCC2(C)C(c4cccnc4)=CCC32)C1 (stereo unspecified),144 to 145 °C
11,CCOC(=O)c1cnc2c3c(ccc2c1)C(=O)CC=N3,250 to 252 °C
12,O=S(CCCCCOc1ccc(C2=C(c3ccccc3)CCCc3ccccc32)cc1)CCCC(F)(F)C(F)(F)F (stereo unspecified),114 to 116 °C
13,O=c1[nH]c2ccc(C(c3ccc(Cl)cc3)n3ccnc3-c3ccccc3)cc2c(Oc2cccc(Cl)c2)c1CO (stereo unspecified),246 °C
14,N=C(N)N(CCCC(C=O)NC(=O)C1CCCN1C(=O)c1cc2ccccc2[nH]1)C(=O)OCc1ccccc1 (stereo unspecified),111 to 133 °C
15,Cc1cc(C)c2c(c1)[C@H]1CN(C)CC[C@@H]1CC2=O (relative stereo),> 250 °C
16,COC1CCC(S(=O)(=O)c2ccccc2)O1 (stereo unspecified),68 °C
17,Cc1ccc([N+](=O)[O-])c2c1CCC(C)O2 (stereo unspecified),83 to 85 °C
18,NC1=NC2(CN(C(=O)OCc3ccccc3)C2)Nc2cccc(F)c21,157 to 159 °C
19,O=C(CCC(=O)N1CCC(c2ccc(Cl)cc2)CC1)c1ccc2c(c1)CN(Cc1ccccc1)CC2,102 to 103 °C
20,CN1CC(CCN2CCN(c3cc(Cl)cc(Cl)c3)CC2)OC1=O (stereo unspecified),89 to 90 °C
21,COc1ccc(-c2ccc3c(c2)C(=O)NC3=O)c2c1OCCO2,285 to 287 °C
22,N#Cc1cccc2c1C(=O)C(OCc1ccccc1)=C(OCc1ccccc1)C2=O,118 to 121 °C
23,COc1ccccc1C(Cn1ccnc1)S(=O)(=O)c1ccc(C(=O)O)cc1 (stereo unspecified),134 to 138 °C
24,C#CCOc1ccc(C)cc1S(=O)(=O)NC(=O)Nc1nc(Cl)cc(OC)n1,202 to 204 °C
25,Cc1ccc(COc2ncc(F)c(NCO)n2)cc1,97 to 98 °C
26,CCOC(=O)C(C)(C)OC(=O)c1cc(-n2c(=O)cc(C(F)(F)F)[nH]c2=O)ccc1Cl,176 to 177 °C

row,SMILES,melting point
1,C(=Cc1ccc2c(n1)[nH]c1ccccc12)c1ccccc1,> 220 °C
2,CNCc1ccc(-c2ccc(OC)c(Br)c2)cc1,65 to 68 °C
3,CCc1oc2ccccc2c1C(=O)N(C)Cc1ccc2cc(O)ccc2c1,80 to 90 °C
4,CC(C)(O)Cn1cnc2c(N)nc3c(c21)CCCC3,260 to 261 °C
5,O=C(C=Cc1ccccc1)c1ccc(OCc2ccccc2)cc1O,116 to 118 °C
6,CC(C)(C)OC(=O)[C@H]1C[C@@H](S(=O)(=O)c2ccccc2F)[C@@H](c2ccccc2F)N1 (racemic),202 °C
7,Cc1ccc2c3c(ccc2n1)OC[C@H](CNC(=O)C1CCc2c([nH]c4ccc(F)cc24)C1)O3 (stereo partly specified),92 to 96 °C
8,Nc1ncc(Cc2ccc3c(c2)OCO3)c(N)n1,248 to 255 °C
9,CONCc1nc2cnc3ccccc3c2n1CC1CCOCC1,58 to 63 °C
10,Cc1c(NC(=O)c2cc3c(s2)C(O)CCC3)cccc1-c1cn(C)c(=O)c(Nc2ccc(C3C(=O)N(C)CCN3C)cc2)n1 (stereo unspecified),165 to 166 °C
11,CCCCNC(=O)c1ccc2c(=O)nc(-c3ccccn3)sc2c1,194 °C
12,CC(=Cc1c(Cl)cc(N(C)C)cc1Cl)[N+](=O)[O-],105 to 110 °C
13,Cc1cc(Oc2cc(C(F)(F)F)nn2C)nc(C(=O)O)c1,168 °C
14,COc1ccc(NC(=O)CN2CCC(Cc3ccc(F)cc3)CC2)cc1,121 to 124 °C
15,CCOC(=O)Cn1cc(Cc2cccc([N+](=O)[O-])c2)c2ccccc21,163 to 165 °C
16,CCCCNC(=O)NS(=O)(=O)c1cc(Cl)ccc1C(=O)OC(C)C,129 °C
17,O=C(Nc1ccc(-n2nc(C(F)(F)F)cc2C(F)(F)F)cn1)c1ccccc1F,153 to 155 °C
18,CCOCc1nc2c(N)nc3cc(Br)ccc3c2n1CC1CCOCC1,186 to 188 °C
19,O=C(O)C1CCC(c2cc3cccnc3c(=O)[nH]2)CC1 (stereo unspecified),> 270 °C
20,CN(CCOc1cccc2ccn(C(=O)OC(C)(C)C)c12)C(=O)OC(C)(C)C,74 to 76 °C
21,C[C@H]1[C@H](c2ccccc2)N(C)C(=O)N1C(=O)NC1CCCCC1 (relative stereo),108 °C
22,FC(F)(F)c1nn(-c2c(Cl)cc(Cl)cc2Cl)cc1Br,93 to 94 °C
23,CCOC(=O)c1cc2c3cccc(OC)c3ncn2c1,154 to 155 °C
24,CCCCc1nc2c(c(C)c(C)n3nnnc23)n1CC(C)(C)NC(=O)NC1CCCCC1,194 to 197 °C
25,Cc1[nH]c(=O)sc1C#N,180 to 181 °C
26,CN1C(=O)CC(=O)N(C2CCCCC2)C1=O,81 to 82 °C

row,SMILES,melting point
1,CC(C)n1nc(-c2sc(NC(=O)c3ccc(Cl)cc3)nc2-c2ccccc2)ccc1=O,205 to 206 °C
2,N=C(N)SCc1cccc(CSC(=N)N)c1,216 to 218 °C
3,O=C(NCc1cccc(F)c1)NNC(=O)c1ccc2c(c1)CCO2,200 to 201 °C
4,CC(COc1ccc(CCO)cc1)NCC(O)c1ccccc1 (stereo unspecified),93 to 96 °C
5,CC(C)Cn1nccc1-c1nn(-c2cccc(C(F)(F)F)c2)ccc1=O,120 to 121 °C
6,COc1ccc(CN2C(=O)C(C)(c3cc(CO)ccc3Cl)c3cc(Cl)ccc32)c(OC)c1 (stereo unspecified),97 °C
7,Nc1cnc2cccnc2c1O,315 to 320 °C
8,CC(C)OC(=O)OCC1(C)COC(=O)OC1,64 to 65 °C
9,CC(C)(F)Cn1c(CO)nc2c(N)nc3cccnc3c21,240 to 241 °C
10,CCOC(=O)C1=C(O)CCn2c1nc1ccccc12,233 to 235 °C
11,CC(CC1C(C(=O)O)C1(C)C)=C(Cl)Cl (stereo unspecified),58.5 to 60 °C
12,ClCCCCCCOc1ccc(C2=C(c3ccccc3)CCCc3cc(OC4CCCCO4)ccc32)cc1 (stereo unspecified),84 to 86 °C
13,CCc1c(-c2ccc(OCc3ccccc3)cc2)c2c(COCCCCCN3CCCCC3)cc3c(OCc4ccccc4)ccc1n32,106 to 107 °C
14,Cc1nc2ccccc2c(NCCO)c1Br,154 to 155 °C
15,CS(=O)(=O)C1C(O)C(CO)OC1n1ccc(=O)[nH]c1=O (stereo unspecified),227 to 228 °C
16,Cc1ccc2c(c1)Cn1nnnc1C(=O)N2,244 to 247 °C
17,COc1ccc(NC2C3CCC(CC3=O)C2(C)c2ccccc2)cc1 (stereo unspecified),138 to 139 °C
18,COc1cccc(CNc2nccc(-c3cc(N4CCN(CCCN(C)C)CC4)c4cc(OC)ccc4c3)n2)c1,70 to 75 °C
19,CCOC(=O)/C=C(C)/C=C/C1=C(Br)CCC1,85 to 86 °C
20,CNC1=NS(=O)(=O)N=C1NCCSCc1cnc(CN(C)C)s1,170 to 172 °C
21,CS(=O)(=O)c1ccc(C(=O)c2cc(-c3ccccc3)c(N3CCOCC3)s2)cc1,175 °C
22,Clc1ccc(-c2nc(Cl)c3ccccc3n2)cc1,166 to 167 °C
23,Cc1cc(NCCNC(=O)CCc2cc(C(C)(C)C)c(O)c(C(C)(C)C)c2)nc(Cl)c1C#N,162 to 165 °C

# Reference: a melting point compilation (Tetko et al.; mined from patent text by program, amines drawn as free bases though some values may be those of a salt)
